Legend:
[1] = Antiproliferative activity against human U87MG cells after 72 hrs by MTT assay; type: functional, cell-based, U-87MG ATCC; conditions: U-87 MG
[2] = Antiproliferative activity against human A549 cells after 72 hrs by MTT assay; type: functional, cell-based; conditions: A549, 72 h

SMILES	IC50 [1]	IC50 [2]
CCOC(=O)c1nc2ccccc2nc1C#Cc1ccccc1	3.3 µM	3.3 µM
O=c1c2nc3ccccc3nc2cc(-c2ccccc2)n1-c1ccccc1	21.3 µM	46.4 µM
Cc1ccc(-c2cc3nc4ccccc4nc3c(=O)n2-c2ccccc2)cc1	23.7 µM	39.6 µM
CCOC(=O)c1nc2ccccc2nc1C#Cc1ccccc1OC	11.6 µM	7.9 µM
CCOC(=O)c1nc2ccccc2nc1C#CC1CC1	6.2 µM	7.6 µM
CCOC(=O)c1nc2ccccc2nc1C#Cc1ccccc1C	31.6 µM	27 µM
CCOC(=O)c1nc2ccccc2nc1C#Cc1cccc(F)c1	1.9 µM	3 µM
CCOC(=O)c1nc2ccccc2nc1C#Cc1ccc(C)cc1	3.3 µM	3.3 µM
CCOC(=O)c1nc2ccccc2nc1C#Cc1cccc(C)c1	5.5 µM	6.5 µM
O=c1c2nc3ccccc3nc2cc(-c2ccccc2)n1-c1ccc(Cl)cc1	34.6 µM	43 µM
CCOC(=O)c1nc2ccccc2nc1C#CC1CCCC1	11.4 µM	11.2 µM

Reference: ChEMBL document CHEMBL3875176, “Synthesis and evaluation of in vitro antiproliferative activity of new ethyl 3-(arylethynyl)quinoxaline-2-carboxylate and pyrido[4,3-b]quinoxalin-1(2H)-one derivatives” (Eur J Med Chem, 2016)
